The NIST ThermoML archive (doi:10.1021/je034162x)

Conditions: 101.33 kPa, Liquid, Hot wire method

C1CCCCCC1 [cycloheptane]
Conditions	thermal conductivity [W/m/K]	thermal diffusivity [m2/s]
262.18 K	0.1272	–
262.37 K	0.1271	–
262.5 K	0.1271	–
262.77 K	–	8.84e-08
263.24 K	–	8.9e-08
263.56 K	–	8.91e-08
280.17 K	0.1228	–
280.35 K	0.1227	–
280.48 K	0.1227	–
280.76 K	–	8.39e-08
281.19 K	–	8.4e-08
281.5 K	–	8.4e-08
297.01 K	0.1187	–
297.2 K	0.1185	–
297.33 K	0.1185	–
297.59 K	–	7.97e-08
298.03 K	–	7.98e-08
298.33 K	–	7.98e-08
320.05 K	0.1132	–
320.23 K	0.1131	–
320.36 K	0.113	–
320.62 K	–	7.47e-08
321.05 K	–	7.46e-08
321.34 K	–	7.46e-08

[2H]C1([2H])C([2H])([2H])C([2H])([2H])C([2H])([2H])C([2H])([2H])C1([2H])[2H] [cyclohexane-d12]
Conditions	thermal conductivity [W/m/K]	thermal diffusivity [m2/s]
280.46 K	0.1163	–
280.63 K	0.1162	–
280.74 K	0.1161	–
280.97 K	–	6.83e-08
281.35 K	–	6.85e-08
281.6 K	–	6.81e-08
291.18 K	0.1133	–
291.34 K	0.1133	–
291.45 K	0.1132	–
291.65 K	–	6.5e-08
292.04 K	–	6.54e-08
292.29 K	–	6.53e-08
303.67 K	0.11	–
303.83 K	0.1099	–
303.92 K	0.1098	–
304.14 K	–	6.23e-08
304.49 K	–	6.22e-08
304.72 K	–	6.19e-08
315.91 K	0.1067	–
316.06 K	0.1066	–
316.17 K	0.1066	–
316.35 K	–	5.91e-08
316.71 K	–	5.93e-08
316.96 K	–	5.96e-08
326.3 K	0.1042	–
326.44 K	0.104	–
326.54 K	0.104	–
326.75 K	–	5.75e-08
327.08 K	–	5.73e-08
327.31 K	–	5.72e-08

C1CCCCC1 [cyclohexane]
Conditions	thermal conductivity [W/m/K]	thermal diffusivity [m2/s]
280.83 K	0.1232	–
281 K	0.1231	–
281.15 K	0.123	–
281.38 K	–	8.75e-08
281.78 K	–	8.73e-08
282.12 K	–	8.75e-08
295.53 K	0.119	–
295.7 K	0.1189	–
295.83 K	0.1187	–
296.05 K	–	8.25e-08
296.45 K	–	8.28e-08
296.76 K	–	8.24e-08
300.84 K	0.1175	–
301 K	0.1173	–
301.14 K	0.1172	–
301.35 K	–	8.09e-08
301.73 K	–	8.06e-08
302.06 K	–	8.09e-08
318.66 K	0.1124	–
318.82 K	0.1123	–
318.95 K	0.1121	–
319.16 K	–	7.6e-08
319.54 K	–	7.59e-08
319.84 K	–	7.56e-08

C1=CCCCC1 [cyclohexene]
Conditions	thermal conductivity [W/m/K]	thermal diffusivity [m2/s]
257.22 K	0.1406	–
257.42 K	0.1404	–
257.57 K	0.1404	–
257.97 K	–	1.01e-07
258.49 K	–	1.01e-07
258.86 K	–	1.01e-07
275.37 K	0.1348	–
275.58 K	0.1346	–
275.73 K	0.1346	–
276.12 K	–	9.55e-08
276.65 K	–	9.55e-08
277.03 K	–	9.56e-08
295.57 K	0.1284	–
295.77 K	0.1282	–
295.92 K	0.1281	–
296.28 K	0.1278	–
296.29 K	–	8.83e-08
296.49 K	0.1277	–
296.65 K	0.1276	–
296.77 K	–	8.78e-08
297.03 K	–	8.88e-08
297.15 K	–	8.79e-08
297.55 K	–	8.87e-08
297.94 K	–	8.88e-08
311.67 K	0.1231	–
311.89 K	0.1229	–
312.04 K	0.1228	–
312.42 K	–	8.46e-08
312.96 K	–	8.46e-08
313.32 K	–	8.42e-08
327.85 K	0.118	–
328.07 K	0.1178	–
328.22 K	0.1177	–
328.59 K	–	7.97e-08
329.13 K	–	7.97e-08
329.49 K	–	7.94e-08

C1CCCCCCC1 [cyclooctane]
Conditions	thermal conductivity [W/m/K]	thermal diffusivity [m2/s]
288.7 K	0.1205	–
288.96 K	0.1203	–
289.17 K	0.1202	–
289.34 K	–	7.48e-08
289.97 K	–	7.48e-08
290.48 K	–	7.48e-08
295.85 K	0.1191	–
295.88 K	0.1191	–
296.09 K	0.1189	–
296.21 K	0.1188	–
296.43 K	–	7.39e-08
296.51 K	–	7.35e-08
297.02 K	–	7.36e-08
297.3 K	–	7.36e-08
311.67 K	0.1156	–
311.88 K	0.1154	–
312.1 K	0.1154	–
312.37 K	–	7.05e-08
312.87 K	–	7.03e-08
313.4 K	–	7.04e-08
328.99 K	0.1119	–
329.22 K	0.1118	–
329.43 K	0.1117	–
329.7 K	–	6.75e-08
330.22 K	–	6.75e-08
330.71 K	–	6.72e-08

C1CCCC1 [cyclopentane]
Conditions	thermal conductivity [W/m/K]	thermal diffusivity [m2/s]
257.08 K	0.1428	–
257.27 K	0.1426	–
257.4 K	0.1425	–
257.78 K	–	1.11e-07
258.26 K	–	1.11e-07
258.6 K	–	1.11e-07
276.13 K	0.1349	–
276.33 K	0.1348	–
276.47 K	0.1348	–
276.83 K	–	1.03e-07
277.31 K	–	1.03e-07
277.68 K	–	1.03e-07
293.63 K	0.1281	–
293.83 K	0.1279	–
293.97 K	0.1278	–
294.33 K	–	9.64e-08
294.82 K	–	9.62e-08
295.17 K	–	9.61e-08
300.67 K	0.1254	–
300.87 K	0.1253	–
301.01 K	0.1251	–
301.34 K	–	9.3e-08
301.83 K	–	9.29e-08
302.17 K	–	9.28e-08
316.21 K	0.1195	–
316.4 K	0.1193	–
316.54 K	0.1192	–
316.87 K	–	8.68e-08
317.34 K	–	8.66e-08
317.67 K	–	8.65e-08

C1=CCCC1 [cyclopentene]
Conditions	thermal conductivity [W/m/K]	thermal diffusivity [m2/s]
258.72 K	0.1491	–
258.94 K	0.1489	–
259.1 K	0.1488	–
259.64 K	–	1.13e-07
260.25 K	–	1.12e-07
260.69 K	–	1.12e-07
276.99 K	0.1409	–
277.23 K	0.1407	–
277.4 K	0.1406	–
277.93 K	–	1.05e-07
278.57 K	–	1.05e-07
279.02 K	–	1.05e-07
294.92 K	0.133	–
295.16 K	0.1328	–
295.33 K	0.1327	–
295.88 K	–	9.78e-08
296.54 K	–	9.78e-08
296.99 K	–	9.74e-08
312.58 K	0.1258	–
312.84 K	0.1256	–
313.02 K	0.1255	–
313.55 K	–	9.09e-08
314.21 K	–	9.08e-08
314.67 K	–	9.05e-08
